Assay results reported in US20110104179A1 (priority 2009, published 2011).
Several values for one entry are separate records, joined by “and”; a condition that tells them apart may be missing. Equal values may be shown once. Read-outs that look alike come from different tables or passages of the source. Ends that are not written are not given here.

How the values were obtained:
[1] = molecular target: RgpB (Porphyromonas gingivalis, UniProt P95493); conditions: comparison value, cited from earlier work
[2] = system: Arginine-gingipains (P. gingivalis W50 whole cell proteases); assay type: cell-based, Porphyromonas gingivalis W50
[3] = system: Arginine-gingipains (P. gingivalis ATCC 33277 whole cell proteases); assay type: cell-based, Porphyromonas gingivalis ATCC 33277
[4] = molecular target: Lysine-gingipains (P. gingivalis ATCC 33277 whole cell proteases) (Porphyromonas gingivalis, UniProt B2RLK2); assay type: cell-based, Porphyromonas gingivalis ATCC 33277; conditions: for Activity with ATCC33277, Lys-gingipains: peptide alone 100 μM, activity ± standard deviation
[5] = 200 μM peptide concentration (FIG. 2, Table 2)

Row | Compound | Ki ([1]; read-out: RgpB Ki) [µM] | IC50 ([1]; read-out: IC50 against RgpB) [µM] | Protease activity (%) of the Arginine-gingipains, W50 Whole Cell Proteases [2] [%] | Activity with ATCC33277, Arg-gingipains [3] | Protease activity (%) of the Arginine-gingipains, ATCC 33277 Whole Cell Proteases [3] | inhibition of whole cell Arg-specific proteolytic activity [3] | Protease activity (%) of the Lysine-gingipains, ATCC 33277 Whole Cell Proteases ([4]; 100 μM peptide) [%] | Protease activity (%) of the Lysine-gingipains, ATCC 33277 Whole Cell Proteases ([4]; 200 μM peptide) [%] | inhibition of whole cell Lys-specific proteolytic activity [4, 5] [%] | Protease activity (%) of the Lysine-gingipains, ATCC 33277 Whole Cell Proteases ([4]; 300 μM peptide) [%] | inhibition of whole cell Lys-specific proteolytic activity ([4]; concentration not given) | Activity with ATCC33277, Lys-gingipains [4]
1 | [H]/N=C(\N/C(=N/[H])NCCCCCCNC(=N)NC(=N)Nc1ccc(Cl)cc1)Nc1ccc(Cl)cc1 [chlorhexidine] | 262 | – | – | – | – | – | – | – | – | – | – | –
2 | C[C@H]1c2cccc(O)c2C(=O)C2=C(O)[C@]3(O)C(=O)C(C(N)=O)=C(O)[C@@H](N(C)C)[C@@H]3[C@@H](O)[C@@H]21 [doxycycline] | – | 3 | – | – | – | – | – | – | – | – | – | –
3 | LPQEVLNENLLRF [αS1-casein(11-23)] | – | – | 22 | 18.00 ± 3.53 | 38% and 39% and 62% | ~70% and 40% and ~60% | 64 | 43 | ~60 | 34 | ~60% | 2.73 ± 0.60
4 | YQEPVLGPVRGPF [β-casein(193-205)] | – | – | – | – | – | – | – | – | – | – | not as potent | –
5 | YQEPVLGPVRGPFPIIV [β-casein(193-209)] | – | – | 46 | 20.03 ± 2.51 | 50% and 69% | 50% and 30% and 40-50% | 71 | 59 | 50 | 49 | 40-50% | 3.03 ± 1.20
